Test results published in ChEMBL document CHEMBL4308841, “Synthesis, in vitro antiproliferative activity, and kinase inhibitory effects of pyrazole-containing diarylureas and diarylamides” (Eur J Med Chem, 2018).

Legend:
OVCAR-4 [1] = experiment: Growth inhibition of human OVCAR4 cells assessed as cell growth at 0.01 uM incubated for 48 hrs by sulforhodamine B assay relative to control; type: functional; conditions: OVCAR-4, 48 h, read-out: Activity
OVCAR-3 = experiment: Growth inhibition of human OVCAR3 cells assessed as cell growth at 100 uM incubated for 48 hrs by sulforhodamine B assay relative to control; type: functional; conditions: OVCAR-3, 48 h, read-out: Activity
SR = experiment: Growth inhibition of human SR cells assessed as cell growth at 0.01 uM incubated for 48 hrs by sulforhodamine B assay relative to control; type: functional; conditions: read-out: Activity
NCI-H226 = experiment: Growth inhibition of human NCI-H226 cells assessed as cell growth at 1 uM incubated for 48 hrs by sulforhodamine B assay relative to control; type: functional; conditions: NCI-H226, 48 h, read-out: Activity
HCT-116 = experiment: Growth inhibition of human HCT116 cells assessed as cell growth at 100 uM incubated for 48 hrs by sulforhodamine B assay relative to control; type: functional; conditions: HCT-116, 48 h, read-out: Activity
MDA-MB-435 [2] = experiment: Growth inhibition of human MDA-MB-435 cells incubated for 48 hrs by sulforhodamine B assay; type: functional, cell-based; conditions: MDA-MB-435, 48 h
K562 = experiment: Growth inhibition of human K562 cells assessed as cell growth at 0.1 uM incubated for 48 hrs by sulforhodamine B assay relative to control; type: functional; conditions: K562, 48 h, read-out: Activity
MDA-MB-468 = experiment: Growth inhibition of human MDA-MB-468 cells incubated for 48 hrs by sulforhodamine B assay; type: functional, cell-based; conditions: MDA-MB-468, 48 h
M14 = experiment: Growth inhibition of human M14 cells assessed as cell growth at 0.1 uM incubated for 48 hrs by sulforhodamine B assay relative to control; type: functional; conditions: M14, 48 h, read-out: Activity
MOLT-4 = experiment: Growth inhibition of human MOLT4 cells assessed as cell growth at 1 uM incubated for 48 hrs by sulforhodamine B assay relative to control; type: functional; conditions: MOLT-4, 48 h, read-out: Activity
U-251 = experiment: Growth inhibition of human U251 cells assessed as cell growth at 0.01 uM incubated for 48 hrs by sulforhodamine B assay relative to control; type: functional; conditions: U-251, 48 h, read-out: Activity
TK-10 = experiment: Growth inhibition of human TK10 cells assessed as cell growth at 10 uM incubated for 48 hrs by sulforhodamine B assay relative to control; type: functional; conditions: TK-10, 48 h, read-out: Activity
HCC 2998 = experiment: Growth inhibition of human HCC2998 cells assessed as cell growth at 1 uM incubated for 48 hrs by sulforhodamine B assay relative to control; type: functional; conditions: HCC 2998, 48 h, read-out: Activity
MDA-MB-435 [3] = experiment: Growth inhibition of human MDA-MB-435 cells assessed as cell growth at 1 uM incubated for 48 hrs by sulforhodamine B assay relative to control; type: functional; conditions: MDA-MB-435, 48 h, read-out: Activity
OVCAR-8 = experiment: Growth inhibition of human OVCAR8 cells assessed as cell growth at 0.1 uM incubated for 48 hrs by sulforhodamine B assay relative to control; type: functional; conditions: OVCAR-8, 48 h, read-out: Activity
OVCAR-5 = experiment: Growth inhibition of human OVCAR5 cells incubated for 48 hrs by sulforhodamine B assay; type: functional, cell-based; conditions: OVCAR-5, 48 h
OVCAR-4 [4] = experiment: Growth inhibition of human OVCAR4 cells incubated for 48 hrs by sulforhodamine B assay; type: functional, cell-based; conditions: OVCAR-4, 48 h
SNB-19 = experiment: Growth inhibition of human SNB19 cells assessed as cell growth at 0.01 uM incubated for 48 hrs by sulforhodamine B assay relative to control; type: functional; conditions: SNB-19, 48 h, read-out: Activity
SW-620 = experiment: Growth inhibition of human SW620 cells assessed as cell growth at 0.01 uM incubated for 48 hrs by sulforhodamine B assay relative to control; type: functional; conditions: SW-620, 48 h, read-out: Activity
A498 = experiment: Growth inhibition of human A498 cells incubated for 48 hrs by sulforhodamine B assay; type: functional, cell-based; conditions: A498, 48 h
SK-MEL-2 = experiment: Growth inhibition of human SK-MEL-2 cells assessed as cell growth at 0.1 uM incubated for 48 hrs by sulforhodamine B assay relative to control; type: functional; conditions: SK-MEL-2, 48 h, read-out: Activity
LOX IMVI = experiment: Growth inhibition of human LOXIMVI cells incubated for 48 hrs by sulforhodamine B assay; type: functional
T47D = experiment: Growth inhibition of human T47D cells assessed as cell growth at 0.01 uM incubated for 48 hrs by sulforhodamine B assay relative to control; type: functional; conditions: read-out: Activity
Hs-578T = experiment: Growth inhibition of human Hs578T cells assessed as cell growth at 1 uM incubated for 48 hrs by sulforhodamine B assay relative to control; type: functional; conditions: read-out: Activity
HT-29 = experiment: Growth inhibition of human HT-29 cells incubated for 48 hrs by sulforhodamine B assay; type: functional, cell-based; conditions: HT-29, 48 h
786-0 = experiment: Growth inhibition of human 786-0 cells incubated for 48 hrs by sulforhodamine B assay; type: functional, cell-based; conditions: 786-0, 48 h
HCT-15 = experiment: Growth inhibition of human HCT15 cells assessed as cell growth at 100 uM incubated for 48 hrs by sulforhodamine B assay relative to control; type: functional; conditions: HCT-15, 48 h, read-out: Activity
A549 = experiment: Growth inhibition of human A549/ATCC cells assessed as cell growth at 1 uM incubated for 48 hrs by sulforhodamine B assay relative to control; type: functional; conditions: A549, 48 h, read-out: Activity
[5] = read-out: LC50 (the source's name)
[6] = read-out: pLC50 (the source's name) (converted)

**Q.** Which growth at 0.01 µM (OVCAR-4 [1]) does the source give for `COc1cc(Cl)cc(-c2nn(-c3cccc(NC(=O)c4ccc(N5CCOCC5)c(C(F)(F)F)c4)c3)cc2-c2ccncc2)c1` here?
**A.** 99%

**Q.** And the growth at 100 µM (OVCAR-3)?
**A.** 44%

**Q.** And the growth at 0.01 µM (SR)?
**A.** 96%

**Q.** What about the growth at 1 µM (NCI-H226) of the same molecule?
**A.** 54%

**Q.** And the growth at 100 µM (HCT-116)?
**A.** 25%

**Q.** What about the GI50 (MDA-MB-435 [2]; read-out: GI50) of the same molecule?
**A.** 4.38 µM

**Q.** What about the LC50 (MDA-MB-435 [2]; read-out: LC50) of the same molecule?
**A.** > 100 µM

**Q.** And the TGI (MDA-MB-435 [2]; read-out: TGI)?
**A.** > 100 µM

**Q.** And the GI50 (MDA-MB-435 [2]; read-out: pGI50 (converted))?
**A.** 43.7 µM

**Q.** And the LC50 (MDA-MB-435 [2]; read-out: pLC50 (converted))?
**A.** > 100 µM

**Q.** And the TGI (MDA-MB-435 [2]; read-out: pTGI (converted))?
**A.** > 100 µM

**Q.** And the growth at 0.1 µM (K562)?
**A.** 95%

**Q.** And the IC50 (MDA-MB-468)?
**A.** 12.1 µM

**Q.** What about the GI50 (MDA-MB-468; read-out: GI50) of the same molecule?
**A.** 1.21 µM

**Q.** What about the CC50 (MDA-MB-468; [5]) of the same molecule?
**A.** > 100 µM

**Q.** And the TGI (MDA-MB-468; read-out: TGI)?
**A.** > 100 µM

**Q.** And the GI50 (MDA-MB-468; read-out: pGI50 (converted))?
**A.** 12 µM

**Q.** What about the CC50 (MDA-MB-468; [6]) of the same molecule?
**A.** > 100 µM

**Q.** What about the TGI (MDA-MB-468; read-out: pTGI (converted)) of the same molecule?
**A.** > 100 µM

**Q.** What about the growth at 0.1 µM (M14) of the same molecule?
**A.** 96%

**Q.** And the growth at 1 µM (MOLT-4)?
**A.** 77%

**Q.** And the growth at 0.01 µM (U-251)?
**A.** 95%

**Q.** And the growth at 10 µM (TK-10)?
**A.** 90.6%

**Q.** And the growth at 1 µM (HCC 2998)?
**A.** 100%

**Q.** And the growth at 1 µM (MDA-MB-435 [3])?
**A.** 92%

**Q.** And the growth at 0.1 µM (OVCAR-8)?
**A.** 100%

**Q.** And the GI50 (OVCAR-5; read-out: GI50)?
**A.** 3.25 µM

**Q.** What about the CC50 (OVCAR-5; [5]) of the same molecule?
**A.** > 100 µM

**Q.** And the TGI (OVCAR-5; read-out: TGI)?
**A.** > 100 µM

**Q.** And the GI50 (OVCAR-5; read-out: pGI50 (converted))?
**A.** 32.4 µM

**Q.** And the CC50 (OVCAR-5; [6])?
**A.** > 100 µM

**Q.** What about the TGI (OVCAR-5; read-out: pTGI (converted)) of the same molecule?
**A.** > 100 µM

**Q.** And the GI50 (OVCAR-4 [4]; read-out: GI50)?
**A.** 3.97 µM

**Q.** What about the CC50 (OVCAR-4 [4]; [5]) of the same molecule?
**A.** > 100 µM

**Q.** What about the TGI (OVCAR-4 [4]; read-out: TGI) of the same molecule?
**A.** > 100 µM

**Q.** What about the GI50 (OVCAR-4 [4]; read-out: pGI50 (converted)) of the same molecule?
**A.** 39.8 µM

**Q.** What about the CC50 (OVCAR-4 [4]; [6]) of the same molecule?
**A.** > 100 µM

**Q.** What about the TGI (OVCAR-4 [4]; read-out: pTGI (converted)) of the same molecule?
**A.** > 100 µM

**Q.** What about the growth at 0.01 µM (SNB-19) of the same molecule?
**A.** 96%

**Q.** What about the growth at 0.01 µM (SW-620) of the same molecule?
**A.** 96%

**Q.** And the GI50 (A498; read-out: GI50)?
**A.** 1.52 µM

**Q.** What about the CC50 (A498; [5]) of the same molecule?
**A.** > 100 µM

**Q.** And the TGI (A498; read-out: TGI)?
**A.** > 100 µM

**Q.** What about the GI50 (A498; read-out: pGI50 (converted)) of the same molecule?
**A.** 16.2 µM

**Q.** And the CC50 (A498; [6])?
**A.** > 100 µM

**Q.** What about the TGI (A498; read-out: pTGI (converted)) of the same molecule?
**A.** > 100 µM

**Q.** And the growth at 0.1 µM (SK-MEL-2)?
**A.** 83%

**Q.** What about the GI50 (LOX IMVI; read-out: GI50) of the same molecule?
**A.** 1.58 µM

**Q.** And the CC50 (LOX IMVI; [5])?
**A.** > 100 µM

**Q.** What about the TGI (LOX IMVI; read-out: TGI) of the same molecule?
**A.** > 100 µM

**Q.** And the GI50 (LOX IMVI; read-out: pGI50 (converted))?
**A.** 15.8 µM

**Q.** And the CC50 (LOX IMVI; [6])?
**A.** > 100 µM

**Q.** And the TGI (LOX IMVI; read-out: pTGI (converted))?
**A.** > 100 µM

**Q.** And the growth at 0.01 µM (T47D)?
**A.** 94%

**Q.** And the growth at 1 µM (Hs-578T)?
**A.** 81%

**Q.** What about the GI50 (HT-29; read-out: GI50) of the same molecule?
**A.** 4 µM

**Q.** And the CC50 (HT-29; [5])?
**A.** > 100 µM

**Q.** What about the TGI (HT-29; read-out: TGI) of the same molecule?
**A.** 38 µM

**Q.** And the GI50 (HT-29; read-out: pGI50 (converted))?
**A.** 4.07 µM

**Q.** What about the CC50 (HT-29; [6]) of the same molecule?
**A.** > 100 µM

**Q.** What about the TGI (HT-29; read-out: pTGI (converted)) of the same molecule?
**A.** 38 µM

**Q.** What about the GI50 (786-0; read-out: GI50) of the same molecule?
**A.** 3.73 µM

**Q.** And the CC50 (786-0; [5])?
**A.** > 100 µM

**Q.** And the TGI (786-0; read-out: TGI)?
**A.** 29.6 µM

**Q.** And the GI50 (786-0; read-out: pGI50 (converted))?
**A.** 3.24 µM

**Q.** And the CC50 (786-0; [6])?
**A.** > 100 µM

**Q.** What about the TGI (786-0; read-out: pTGI (converted)) of the same molecule?
**A.** 29.5 µM

**Q.** And the growth at 100 µM (HCT-15)?
**A.** 5%

**Q.** What about the growth at 1 µM (A549) of the same molecule?
**A.** 52%
